Reference: PubChem BioAssay AID248 (DTP/NCI, 2004)
Where “and” joins values, the source holds several entries; their conditions need not be identical. Equal entries are not always repeated. Inconclusive results and toxic doses are left out. Cut-off read from the data, not from the text of the source: active = T/C of 150% or more; inactive = T/C below 125%.

Tested on: L1210 leukemia ip in BDF1 mice, survival T/C
Assay: NCI In Vivo Anticancer Drug Screen. Data for tumor model L1210 Leukemia (intraperitoneal) in B6D2F1 (BDF1) mice
Conditions: endpoint: mean survival time, higher = longer survival
In short: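 Survival endpoint. Drug-treated group vs vehicle group, expressed as T divided by C. Tumor passaged by transplantation.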

Measured: T/C

O=C1CC(=P(c2ccccc2)(c2ccccc2)c2ccccc2)C(=O)N1c1ccccc1
inactive: dose: 50.0 mg/kg/injection, schedule: Q01DX009 (ip), vehicle: saline with Tween-80 100 % of control | dose: 100.0 mg/kg/injection, schedule: Q01DX009 (ip), vehicle: Klucel (hydroxypropylcellulose) (HPC) 94 % of control | dose: 100.0 mg/kg/injection, schedule: Q01DX009 (ip), vehicle: saline with Tween-80 100 % of control | dose: 100.0 mg/kg/injection, schedule: Q04DX002 (ip), vehicle: Klucel (hydroxypropylcellulose) (HPC) 106 % of control | dose: 200.0 mg/kg/injection, schedule: Q01DX009 (ip), vehicle: Klucel (hydroxypropylcellulose) (HPC) 102 % of control | dose: 200.0 mg/kg/injection, schedule: Q01DX009 (ip), vehicle: saline with Tween-80 100 % of control | dose: 200.0 mg/kg/injection, schedule: Q04DX002 (ip), vehicle: Klucel (hydroxypropylcellulose) (HPC) 109 % of control | dose: 400.0 mg/kg/injection, schedule: Q01DX009 (ip), vehicle: Klucel (hydroxypropylcellulose) (HPC) 94 % of control | dose: 400.0 mg/kg/injection, schedule: Q04DX002 (ip), vehicle: Klucel (hydroxypropylcellulose) (HPC) 98 % of control

NC1(C(=O)O)CSSC1
inactive: dose: 12.5 mg/kg/injection, schedule: Q01DX005 (ip), vehicle: saline 97 % of control | dose: 25.0 mg/kg/injection, schedule: Q01DX005 (ip), vehicle: saline 99 % of control | dose: 50.0 mg/kg/injection, schedule: Q01DX005 (ip), vehicle: saline 103 % of control and 114 % of control | dose: 100.0 mg/kg/injection, schedule: Q01DX001 (ip), vehicle: saline 106 % of control | dose: 100.0 mg/kg/injection, schedule: Q01DX005 (ip), vehicle: saline 110 % of control | dose: 200.0 mg/kg/injection, schedule: Q01DX001 (ip), vehicle: saline 101 % of control
